12 molecules from BindingDB's records for doi:10.1021/acs.jmedchem.9b00775 (University of North Carolina at Chapel Hill, 2020) can be followed below.

Test [1] in a line: Inhibition of RNA-dependent RNA polymerase in Zika virus PRVABC59/Human/2015/Puerto Rico infected in human NSC assessed as antiviral activity measured 72 hrs post infection by CellTiter-Glo assay.
Test [2] is described as follows: Inhibition of RNA-dependent RNA polymerase in Zika virus H/PAN/2016/BEI-259634 infected in human NSC assessed as antiviral activity measured 72 hrs post infection by CellTiter-Glo assay.
A short description of test [3]: Inhibition of RNA-dependent RNA polymerase in Zika virus MR766 infected in African green monkey Vero E6 cells assessed as antiviral activity.
A short description of test [4]: Inhibition of MTase in Zika virus infected in African green monkey Vero cells assessed as antiviral activity incubated for 5 days by inverted microscopic method.
The nature of test [5]: Inhibition of RNA-dependent RNA polymerase in Zika virus PRVABC59 infected in African green monkey Vero cells assessed as antiviral activity measured 96 hrs post infection by plaque assay.
Test [6] can be described thus: Inhibition of RNA-dependent RNA polymerase in Zika virus MR766 infected in HEK293 cells assessed as antiviral activity by measuring NS1 protein expression preincubated for 1 hr followed by viral infection and measured after 24 hrs by TR-FRET assay.
A short description of test [7]: Inhibition of RNA-dependent RNA polymerase in Zika virus PRVABC59 infected in African green monkey Vero cells infected with supernatants from virus-infected human SNB-19 cells treated with compound for 1 hr assessed as antiviral activity after 48 to 72 hrs.
Test [8] has as its target T1, Genome polyprotein (Zika virus, UniProt A0A143MHK7). The test can be described thus: Inhibition of RNA-dependent RNA polymerase in Zika virus MR766 infected in African green monkey Vero cells assessed as antiviral activity by methylene blue staining based by Plaque reduction assay.
Test [9] addresses T1, Genome polyprotein. In words: Inhibition of RNA-dependent RNA polymerase in Zika virus MR766 infected in African green monkey Vero cells assessed as antiviral activity by measuring reduction in virus-yield.
For test [10], the target named is T1, Genome polyprotein. The test can be described thus: Inhibition of RNA-dependent RNA polymerase in Zika virus MR766 infected in African green monkey Vero cells assessed as antiviral activity by measuring reduction in virus-induced cytopathic effect after 5 days by MTS assay.
Test [11] concerns the target T1, Genome polyprotein. In words: Inhibition of RNA-dependent RNA polymerase in Zika virus MR766 infected in African green monkey Vero cells assessed as antiviral activity by Alexa Fluor 488/DAPI staining based assay.
The target of test [12] is T1, Genome polyprotein. The test can be described thus: Inhibition of RNA-dependent RNA polymerase in Zika virus Malaysian P 6-740 infected in human Huh-7 cells assessed as antiviral activity by neutral dye based colorimetric method.
The target in test [13] is T1, Genome polyprotein. The test can be described thus: Inhibition of RNA-dependent RNA polymerase in Zika virus PRVABC-59 infected in human RD cells assessed as antiviral activity by neutral dye based colorimetric method.
The target in test [14] is T1, Genome polyprotein. The test can be described thus: Inhibition of RNA-dependent RNA polymerase in Zika virus PRVABC-59 infected in African green monkey Vero cells assessed as antiviral activity by neutral dye based colorimetric method.
The target in test [15] is T1, Genome polyprotein. The test can be described thus: Inhibition of RNA-dependent RNA polymerase in Zika virus Ugandan MR-766 infected in human RD cells assessed as antiviral activity by neutral dye based colorimetric method.
For test [16], the target named is T1, Genome polyprotein. In words: Inhibition of RNA-dependent RNA polymerase in Zika virus Ugandan MR-766 infected in African green monkey Vero cells assessed as antiviral activity by neutral dye based colorimetric method.
Test [17] has as its target T1, Genome polyprotein. In words: Inhibition of RNA-dependent RNA polymerase in Zika virus Malaysian P 6-740 infected in African green monkey Vero cells assessed as antiviral activity by neutral dye based colorimetric method.
Test [18] addresses T1, Genome polyprotein. The test can be described thus: Inhibition of RNA-dependent RNA polymerase in Zika virus Ugandan MR-766 infected in human Huh-7 cells assessed as antiviral activity by neutral dye based colorimetric method.
The target of test [19] is T1, Genome polyprotein. The test can be described thus: Inhibition of RNA-dependent RNA polymerase in Zika virus PRVABC-59 infected in human HuH7 cells assessed as antiviral activity by neutral dye based colorimetric method.
Test [20] can be described thus: Inhibition of RNA-dependent RNA polymerase in Zika virus infected in African green monkey Vero cells assessed as antiviral activity by DAPI-staining based assay.
The nature of test [21]: Inhibition of RNA-dependent RNA polymerase in Zika virus infected in human NPC assessed as antiviral activity by DAPI-staining based assay.
For test [22], the target named is T2, Nonstructural protein 3 (Zika virus, UniProt A0A024AXB9). The test can be described thus: Inhibition of NS2B-NS3 protease in Zika virus Puerto Rico/PRVABC5 assessed as antiviral activity measured 48 hrs post infection by plaque reduction assay.
In test [23] the target is T2, Nonstructural protein 3. In words: Inhibition of NS2B-NS3 protease in Zika virus Puerto Rico/PRVABC5 infected in human Huh7 cells assessed as antiviral activity measured 48 hrs post infection by RT-PCR method.
Test [24] addresses T2, Nonstructural protein 3. In words: Inhibition of NS2B-NS3 protease in Zika virus Puerto Rico/PRVABC5 infected in African green monkey Vero cells assessed as antiviral activity measured 48 hrs post infection by RT-PCR method.
The target of test [25] is T1, Genome polyprotein. The test can be described thus: Inhibition of RNA-dependent RNA polymerase in Zika virus GZ01/2016 infected in African green monkey Vero cells assessed as antiviral activity measured 48 hrs post infection by plaque assay.
Test [26] addresses T1, Genome polyprotein. In words: Inhibition of RNA-dependent RNA polymerase in Zika virus GZ01/2016 infected in African green monkey Vero cells assessed as antiviral activity by measuring viral RNA by RT-qPCR method.
Test [27] addresses T1, Genome polyprotein. In words: Inhibition of RNA-dependent RNA polymerase in Zika virus FSS13025/2010 infected in African green monkey Vero cells assessed as antiviral activity by measuring viral RNA by RT-qPCR method.
Test [28] concerns the target T1, Genome polyprotein. The test can be described thus: Inhibition of RNA-dependent RNA polymerase in Zika virus FSS13025/2010 infected in African green monkey Vero cells assessed as antiviral activity measured 48 hrs post infection by plaque assay.
A short description of test [29]: Inhibition of RNA-dependent RNA polymerase in Zika virus MR766 infected in African green monkey Vero cells assessed as antiviral activity after 72 hrs by DAPI staining based assay.

T1 sequence (A0A143MHK7 whole entry): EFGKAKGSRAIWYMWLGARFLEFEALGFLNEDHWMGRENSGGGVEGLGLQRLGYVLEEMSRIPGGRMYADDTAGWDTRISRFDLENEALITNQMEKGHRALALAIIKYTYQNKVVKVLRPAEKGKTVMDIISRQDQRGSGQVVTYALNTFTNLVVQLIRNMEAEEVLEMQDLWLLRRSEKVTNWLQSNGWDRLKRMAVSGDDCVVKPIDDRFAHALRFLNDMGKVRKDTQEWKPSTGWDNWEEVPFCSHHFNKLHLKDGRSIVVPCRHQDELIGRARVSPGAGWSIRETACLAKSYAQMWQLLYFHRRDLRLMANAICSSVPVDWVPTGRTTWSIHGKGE
T2 sequence (A0A024AXB9 whole entry): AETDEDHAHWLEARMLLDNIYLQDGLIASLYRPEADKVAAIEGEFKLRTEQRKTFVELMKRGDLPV

`C#C[C@@]1(O)[C@H](O)[C@@H](COP(=O)(N[C@@H](C)C(=O)OC(C)C)Oc2ccccc2)O[C@H]1n1ccc(=O)[nH]c1=O` (stereo partly specified): the EC50 in [1] is 0.3 µM; in test [2], 0.8 µM.

Turning to `CCCCCOCc1c(Nc2ccc(S(N)(=O)=O)cc2)nc(N2CCOCC2)nc1C(=O)NCCOc1ccccc1`, the EC50 in [3] stood at 2.04 µM.

For `CC(C)OC(=O)[C@H](C)NP(=O)(OC[C@H]1O[C@@H](n2ccc(=O)[nH]c2=O)[C@H](O)[C@@H]1O)Oc1ccccc1` (stereo partly specified), the EC50 in test [1] stood at 1 µM; in test [2] it was 2 µM.

As to `O=C1c2cccc3cccc(c23)C(=O)N1CCc1ccc(S(=O)(=O)N2CCN(c3ccccc3)CC2)cc1`, in test [4], the EC50 was found to be 4.8 µM.

As for `O=C(NC(=S)Nc1ccc(N2CCN(C(=O)c3cccs3)CC2)cc1)c1sc2ccccc2c1Cl`, the EC50 in test [5] is 0.094 µM.

Regarding `CC[C@H]1CN2CCc3cc(OC)c(OC)cc3[C@@H]2C[C@@H]1C[C@H]1NCCc2cc(OC)c(OC)cc21` [6',7',10,11-tetramethoxyemetan], the EC50 in test [6] was 0.053 µM; in test [7], 0.0087 µM.

As to `Nc1ncnc2c1ccn2[C@@H]1O[C@H](CO)[C@@H](O)[C@H]1O` ['2-(4-AMINO-PYRROLO[2,3-D]PYRIMIDIN-7-YL)-5-HYDROXYMETHYL-TETRAHYDRO-FURAN-3,4-DIOL], the EC50 on Genome polyprotein [8], at Genome polyprotein [9], on Genome polyprotein [10] and on Genome polyprotein [11] was 1.3 µM in each case.

As for `Nc1ncnc2c([C@@H]3N[C@H](CO)[C@@H](O)[C@H]3O)c[nH]c12` [BCX-4430], the EC50 on Genome polyprotein [12], at Genome polyprotein [13], on Genome polyprotein [14], on Genome polyprotein [15], at Genome polyprotein [16] and at Genome polyprotein [17] was 14.3 µM in each case. For the same molecule, the EC50 on Genome polyprotein [18] and at Genome polyprotein [19] was 14.3 µM in each case.

For `CC(C)OC(=O)[C@H](C)N[P@](=O)(OC[C@H]1O[C@@H](n2ccc(=O)[nH]c2=O)[C@](C)(F)[C@@H]1O)Oc1ccccc1` [CHEBI:85083], the EC50 stood at 30.9 µM in [20] and 0.12 µM in test [21].

Consider `CO[C@@H]1[C@@H](OC(N)=O)[C@@H](O)[C@H](Oc2ccc3c(O)c(NC(=O)c4ccc(O)c(CC=C(C)C)c4)c(=O)oc3c2C)OC1(C)C` [Carbamic acid 5-hydroxy-6-{4-hydroxy-3-[4-hydroxy-3-(3-methyl-but-2-enyl)-benzoylamino]-8-methyl-2-oxo-2H-chromen-7-yloxy}-3-methoxy-2,2-dimethyl-tetrahydro-pyran-4-yl ester(Novobiocin)], for which the EC50 on Nonstructural protein 3 [22], on Nonstructural protein 3 [23] and at Nonstructural protein 3 [24] was 24.4 µM throughout.

As to `C#C[C@@]1(O)[C@H](O)[C@@H](CO)O[C@H]1n1ccc2c(N)ncnc21` [NITD008], the EC50 at Genome polyprotein [25], on Genome polyprotein [26], on Genome polyprotein [27] and at Genome polyprotein [28] was 0.137 µM in each case.

`NC(=O)c1ncn([C@@H]2O[C@H](CO)[C@@H](O)[C@H]2O)n1` [Tribavirin]: the EC50 in test [29] was 20.8 µM.
